“Also recorded” adds a separate entry of the source. Read-outs that look alike come from different tables or passages of the source.

Data set [1] deals with Dissociated hippocampal cultured neurons. As to the kind of experiment: Toxicity of AHA by gross morphology of GFP-expressing neurons. The settings on record: 12 DIV neurons, 2 hrs, equimolar AHA or methionine control. Format: cell-based, rat.
Procedure: Dissociated hippocampal neuron cultures were prepared from newborn rat pups (PO) as outlined in (Banker and Goslin, 1990), Neurons were plated at a density of 15,000-45,000 cells/cm^2 onto poly-D-lysine coated cell culture dishes or onto poly-D-lysine and growth factor reduced matrigel (BD Biosciences) coated polycarbonate nets with a pore size of 3 μm (Transwell, Corning) for the preparation of isolated dendrites. The cultures were maintained and allowed to mature in growth medium (Neurobasal-A supplemented with B27 and GlutaMAX-1) for 14 to 21 days before use. […] To supplement glial neurotrophic factors, 25% conditioned growth media from glial and cortical cultures were added to the growth media. Isolated dendrites were obtained from Transwell cultures by removing the cell body layer with a sterile cell lifter after change to HBS. For immunolabeling after AHA-incorporation and cycloaddition with BiotinCyclooctyne, neurons are fixed at room temperature with 4% paraformaldehyde for 20 minutes. […] Images are recorded through standard emission filters at contrast settings for which the crossover between the two channels is negligible. […]
In data set [2] the test system is dendrites of hippocampal neurons. Briefly: Time-course of detection of newly synthesized proteins in dendrites. In kind it is cell-based, rat. The method, then: (§1) Dissociated hippocampal neuron cultures were prepared from newborn rat pups (PO) as outlined in (Banker and Goslin, 1990), Neurons were plated at a density of 15,000-45,000 cells/cm^2 onto poly-D-lysine coated cell culture dishes or onto poly-D-lysine and growth factor reduced matrigel (BD Biosciences) coated polycarbonate nets with a pore size of 3 μm (Transwell, Corning) for the preparation of isolated dendrites. The cultures were maintained and allowed to mature in growth medium (Neurobasal-A supplemented with B27 and GlutaMAX-1) for 14 to 21 days before use. The use of this growth medium suppressed glial proliferation, which was even more reduced by application of Ara-C (5 μM final concentration). To supplement glial neurotrophic factors, 25% conditioned growth media from glial and cortical cultures were added to the growth media. Isolated dendrites were obtained from Transwell cultures by removing the cell body layer with a sterile cell lifter after change to HBS. For immunolabeling after AHA-incorporation and cycloaddition with BiotinCyclooctyne, neurons are fixed at room temperature with 4% paraformaldehyde for 20 minutes. Fixed cultures are then treated sequentially with PBS, blocking solution (0.2% Triton X-100, 2 mg/ml BSA, 5% Sucrose, 10% normal horse serum in PBS), primary Ab in blocking solution at 4° C. overnight, PBS-Tx (0.2% Triton X-100 in PBS), Alexa488- or Alexa568-conjugated secondary Ab in blocking solution, PBS-Tx and PBS. Immunostained specimens are imaged in PBS with an Olympus confocal microscope or two-photon microscope through either a 10× or a 63× oil-immersion lens. Alexa568 is excited at 543 nm and Alexa488 at 488 nm. Images are recorded through standard emission filters at contrast settings for which the crossover between the two channels is negligible.
Representative straightened dendrites of neurons (DIV 16) incubated with 4 mM AHA, 4 mM Methionine (Met) or AHA plus 40 μM anisomycin (Aniso) for time points indicated. The lookup table indicates fluorescence intensity. The left end is the proximal end, the right end is the distal end. […]

For data set [3], the system named is mammalian cells, primary neuronal cell cultures. The settings on record: Dieterich et al. 2006, cited from earlier work.
The test system of data set [4] is hippocampal dysembryoplastic neuroepithelial tumor (DNT) tissue. Briefly: AHA labelling of newly synthesized proteins in freshly dissected DNT tumor versus control tissue, anti-biotin Western blot. The settings on record: 4 mM AHA, 1 hour, 37° C., equal total protein; control lateral temporal cortex of the same patient. In kind it is cell-based, human. How it is done:
FIG. 5: Detection of newly synthesized proteins in cells of acutely dissected human brain tissue. Tumor and control cells were trypsinized and triturated before incubation with 4 mM AHA for 1 hour at 37° C. After cell lysis and Cu(I)-catalyzed tagging with a biotin-FLAG-alkyne tag, samples were subjected to Neutravidin-purification to separate newly synthesized proteins from pre-existing proteins, and analyzed on a Western blot using an anti-biotin antibody. Same total protein amounts were used for both tumor and control tissue. Input: sample before affinity purification; Supernatant: unbound material after Neutravidin-purification; NA: Neutravidin.
Having obtained the proper conditions for labeling dissected tissues, Applicants repeated the experiments in freshly dissected human DNT tumor tissues and control tissues. […] As a control, non-diseased tissue (lateral temporal cortex) from the same patient was analyzed along with the DNT tissue.
Freshly dissected tumor and control tissue were obtained in operating room. To ensure optimal uptake of AHA, both tissues were trypsinized and triturated into single cells before treatment with AHA and deuterated 1-lysine. Incubation with AHA was done at 37° C. under constant agitation. The tissues were subsequently lysed in SDS and Tx-100 buffer, and the newly synthesized proteins were Neutravidin (NA)-purified. […]
(A western blot detects proteins with antibodies after separation by electrophoresis.)

Data set [5] relates to HEK293 cells. As to the kind of experiment: Ubiquitin signal on Western blot of whole lysates (protein degradation/misfolding). In kind it is cell-based. As to conditions: HEK293 cells treated two hours, compared to buffer or methionine controls. How it is done:
To show the specificity of this technique for the detection of newly synthesized proteins, HEK293 cells were incubated for 2 hrs with AHA in the presence or absence of a protein synthesis inhibitor (Anisomycin or Cycloheximide). After incubation, cells were lysed and subjected to [3+2]cycloaddition with the biotin-bearing alkyne-linker Biotin-PEO-Propargylamide, followed by Western blot analysis with an anti-Biotin-antibody. […] The potential for increased protein degradation was measured by examining the ubiquitin signal strength on a Western blot from whole lysates of HEK293 cells, which were treated with AHA, methionine or incubation buffer for two hours.

The subject of data set [6] is acute hippocampal slices. As to the kind of experiment: AHA incorporation in acute hippocampal slices, Biotin-PEO tagging, Neutravidin, Western blot. In kind it is cell-based, rat. As to conditions: 400 μm slices, varying concentrations of AHA, 1.5 hours.
Procedure: These slices were recovered in artificial cerebrospinal fluid (ACSF) for at least 1 hour on organotypic membranes. Upon recovery, the slices were incubated with either a mixture of ^35S Met and ^35S Cys, or varying concentrations of AHA for 1.5 hours. FIG. 3C is a Western blot analysis for AHA-incorporated proteins from acute hippocampal slices. After AHA incorporation and slice homogenization, the homogenates were subjected to [3+2]-cycloaddition with a Biotin-PEO tag, and proteins incorporating AHA (and thus subsequently labeled by the Biotin-PEO labeling moiety) were concentrated using Neutravidin-conjugated beads (which binds the Biotin-PEO labeling moiety).
The test system of data set [7] is dissociated hippocampal neurons. As to the kind of experiment: Fluorescent tagging (TRA/FLA tag) of AHA- or HPG-incorporated proteins in neurons. As to conditions: 1 hour; for incorporation into neurons (fluorescent tag detection): DIV 17, 4 mM, 1 μM TRA or FLA tag. In kind it is cell-based, rat. How it is done: as §1
In certain embodiments of the invention, two or more pairs of different non-natural amino acid/labeling reagents may be used to simultaneously or sequentially label the newly synthesized proteins. […]

Data set [8] relates to mammalian cells, primary neuronal cell cultures. As to the kind of experiment: General properties of AHA in cell cultures (previous experiments and literature). In kind it is cell-based.
Data set [9] concerns HEK293 cells. Briefly: Specificity of AHA labelling of newly synthesized proteins, anti-biotin Western blot after [3+2] cycloaddition. In kind it is cell-based. The settings on record: 2 hrs with AHA plus inhibitor. The method, then: In embodiments using [3+2] Cycloaddition, the following exemplary protocol may be used. Briefly, AHA, Biotin-PEO-Propargylamide and the triazole ligand were prepared as described previously. The tandem featured alkyne tag was synthesized by GenScript Corporation. Biotin-Cyclooctyne is a generous gift from Carolyn Bertozzi. D10-L-leucine was purchased from Sigma. In all culture experiments, growth medium was removed from HEK293 cells, whole neuronal cultures or isolated dendrites were replaced with HEPES-buffered solution (HBS) with 2.86 mM AHA, and 2.86 mM methionine for control experiments. After incubation at 37° C., 5% CO2, cells were washed with PBS-MC (1 mM MgCl2, 0.1 mM CaCl2 in PBS) to remove excess amounts of AHA and methionine. SNS and other biochemical fractions are incubated with 2.86 mM AHA or 2.86 mM methionine under agitation at 37° C. and washed in StimBuffer after incubation. […]
To show the specificity of this technique for the detection of newly synthesized proteins, HEK293 cells were incubated for 2 hrs with AHA in the presence or absence of a protein synthesis inhibitor (Anisomycin or Cycloheximide). […] The potential for increased protein degradation was measured by examining the ubiquitin signal strength on a Western blot from whole lysates of HEK293 cells, which were treated with AHA, methionine or incubation buffer for two hours.

Consider `[N-]=[N+]=NCC[C@H](N)C(=O)O` [AHA, azidohomoalanine], for which the “toxicity to neurons (gross morphology, GFP expression in the dendritic arbor)” value in [1] is given as “not toxic to neurons”. Also, in [2] (DIV 16, 4 mM AHA), the “time at which AHA incorporation was visible” value amounted to 10 min; the “time by which whole neuron soma and dendrite was filled with AHA-labeled proteins” value is ≤ 40 min. Moreover, the “global protein synthesis rates” value in data set [3] is recorded as “no evidence that AHA exposure alters global protein synthesis rates”. Also, the “ubiquitination of total protein” value in [3] (compared to buffer or methionine controls) is reported as “no increase in the ubiquitination”. Also, the cell toxicity entry in [3] (incl. primary cultured postnatal neurons) was “not toxic to cells”. Moreover, the “level of protein synthesis by AHA labelling, tumor versus non-diseased tissue” value in [4] is given as “substantially higher in cells from tumor tissue”. The “ubiquitination of total protein” value in data set [5] is listed as “No increased ubiquitination”. Further, the “incorporation into newly synthesized proteins (biotinylated proteins after Neutravidin)” value in data set [6] is reported as “vast enrichment of biotinylated proteins”. In addition, the “incorporation into neurons (fluorescent tag detection)” value in [7] is reported as “successfully incorporated”. Besides, in [8], the cell toxicity result is “not toxic even in primary neuronal cell cultures; also recorded: undetected cell toxicity” and the membrane permeability result was “excellent membrane permeability”. Also, the “protein degradation upon introduction of AHA” value in data set [8] (E. coli and mammalian cells) is “no evidence of increased protein degradation”.

As to `COc1ccc(C[C@H]2NC[C@H](O)[C@H]2OC(C)=O)cc1` [Anisomycin, reference compound], in [2] (40 μM with AHA), the “effect of the protein synthesis inhibitor on AHA labelling of dendrites” value was “completely inhibited”. Moreover, the “effect of the protein synthesis inhibitor on AHA incorporation” value in [7] (40 μM with 4 mM AHA) is “completely abolished AHA incorporation”. Moreover, in [9], the “anti-biotin signal of AHA-labelled proteins in the presence of the protein synthesis inhibitor” value was “No signal was detected”.

On to `C[C@@H]1C[C@@H]([C@H](O)CC2CC(=O)NC(=O)C2)C(=O)[C@@H](C)C1` [Cycloheximide], for which the “anti-biotin signal of AHA-labelled proteins in the presence of the protein synthesis inhibitor” value in data set [9] is given as “No signal was detected”.

For `C#CCCC(N)C(=O)O` (stereo not drawn) [HPG, Homopropargylglycine], the “incorporation into neurons (fluorescent tag detection)” value in data set [7] is listed as “successfully incorporated”.

(Values after patent US20100247433A1, “Use of non-canonical amino acids as metabolic markers for rapidly-dividing cells” (California Institute of Technology, priority 2005, published 2010).)
